Assays:
[1] = Pharmacokinetic study in rat; type: in vivo, Male SD rats; settings: male, SD; for plasma clearance / Vd: 2 mg/kg, Rat PK (IV) 2 mpk; for plasma clearance: read-out: Clint (converted); for Vd / AUC(0-t) / Cmax / Tmax / bioavailability / half-life: plasma; for Vd: read-out: Vss; for AUC(0-t) / Cmax / Tmax / bioavailability / half-life: 10 mg/kg, Rat PK (PO) 10 mpk; for half-life: read-out: T½ (converted)
Protocol: (§1) Male SD rats (185-265 g; purchased from Shanghai SLAC laboratory animal CO. LTD; n=18, with 3 per compound) were treated with a single dose of compounds being tested at 2 mg/kg by intravenous tail-vein injection and 10 mg/kg by oral gavage administration, with both doses formulated in 5% DMSO+45% PEG400 in water. Animals upon PO administration were fasted overnight and fed 4 hours after dosing. Animals upon IV administration were free access to food and water. The study was performed in accordance with the guidelines and standards of the Association for Assessment and Accreditation of Laboratory Animal Care (AAALAC International) and the National Institutes of Health.
The animal is restrained manually. Approximately 150 μL whole blood/time point is collected in K2EDTA tube via tail vein. Blood sample will be put on ice and centrifuged at 2000 g for 5 min to obtain plasma sample within 15 minutes. Plasma samples were stored at approximately −70° C. until analysis. An aliquot of 20 μL sample was added with 200 μL IS (Diclofenac, 100 ng/mL) in ACN. The mixture was vortexed for 10 min and centrifuged at 5800 rpm for 10 min. An aliquot of 1 μL supernatant was injected for LC-MS/MS analysis. For 10×-diluted sample, an aliquot of 2 μL sample was added with 18 μL blank plasma. The sample preparation procedure is same with no-diluted sample. Standard calibration curves were constructed by analyzing a series of control plasma aliquots containing Diclofenac (100 ng/mL) as an internal standard and 1.0-3,000 ng/mL testing compounds. Compound concentrations were determined with UPLC-MS/MS-22 (Triple Quad™ 6500).

[2] = Pharmacokinetic study in mouse; type: in vivo, Male CD-1 mice; settings: male, CD-1, plasma; for plasma clearance / Vd: 2 mg/kg, Mouse PK (IV) 2 mpk; for plasma clearance: read-out: Clint (converted); for Vd: read-out: Vss; for AUC(0-t) / Cmax / Tmax / bioavailability / half-life: 10 mg/kg, Mouse PK (PO) 10 mpk; for half-life: read-out: T½ (converted)
Protocol: as §1, with “CD-1 mice (16-24” for “SD rats (185-265”, “g; 6-8 weeks;” for “g;”, “time point)” for “compound)”, “20% N,N-dimethylacetamide” for “5% DMSO+45% PEG400”
The animals were anesthetized via isoflurane at the designated time points, and approximately 110 μL of blood sample was collected via retro-orbital puncture or cardiac puncture for stagger bleeding under the anesthesia with Isoflurane inhalation into EDTA-2K tubes. The blood samples were maintained in wet ice first and centrifuged to obtain plasma (2000 g, 4° C., 5 min) within 15 minutes post sampling. Plasma samples were stored at approximately −70° C. until analysis. For plasma samples not diluted, an aliquot of 20 μL sample was added with 200 μL IS (Propranolol, 100 ng/mL) in ACN. The mixture was vortexed for 10 min and centrifuged at 5800 rpm for 10 min. An aliquot of 0.5 μL supernatant was injected for LC-MS/MS analysis. For 10-fold diluted plasma samples, an aliquot of 2 μL sample was added with 18 μL blank diluted plasma, the dilution factor was 10. The followed operation was the same as no diluted plasma samples. Standard calibration curves were constructed by analyzing a series of control plasma aliquots containing Propranolol (100 ng/mL) as an internal standard and 1.0-3,000 ng/mL testing compounds. Compound concentrations were determine with UPLC-MS/MS-33 (Triple Quad™ 6500 Plus).

[3] = system: Mantle Cell Lymphoma Z-138 cell; assay: Cell proliferation inhibition, Z-138 (CCK8); type: cell-based; settings: Homo sapiens, Z-138, 96 h, Z-138, incubated 4 days
From the text: Materials and Cell Lines: Z-138, U251, and MIA PaCa2 cells were purchased from ATCC (American Type Culture Collection, Manassas, Va.) and Chinese Academy of Science (Shanghai, China). Iscove's Modified Dulbecco's Medium (IMDM), Dulbecco's Modified Eagle Medium (DMEM), penicillin-streptomycin, heat inactivated fetal bovine serum (FBS), and horse serum was purchased from ThermoFisher, Waltham, Mass., USA. Corning 96- and 384-well cell culture plates were purchased from ThermoFisher, Waltham, Mass., USA. Cell-Titer Glo® was purchased from Promega Corporation, Madison, Wis., USA.
In order to evaluate the inhibitory ability of compounds synthesized on the proliferation of the Mantle Cell Lymphoma Z-138 cell, exponentially growing cells were seeded in the media of IMDM with 10% horse serum and 1% penicillin-streptomycin at a concentration of 30000 cells/ml in a 96-well plate with 100 ul per well and incubated overnight at 37° C., 5% CO2 incubator. Compounds were prepared as 10-point, 3-fold serial dilutions in DMSO, beginning at 6 mM. 1 μl of DMSO solutions from the compound stock plates were added to 99 ul of cell culture media (final top concentration of compound in the assay was 30 uM and the final concentration of DMSO was 0.5%). 100 μL of compound solutions in media were added to each well of Z-138 cell plates. After adding compound solutions, assay plates were incubated for 4 days at 37° C., 5% CO2. Cell viability was measured using the Cell Counting Kit-8 (CCK8) obtained from the Beyotime Biotehnology, Shanghai, China. 20 ul of CCK8 reagent was added to each well of the Z-138 assay plate which was incubated at 37° C. for 2 hours. O.D. at 450 nm was read with the FlexStation 3 microplate reader (Molecular Devices, Sunnyvale, Calif. 94089 USA). The concentrations of compounds inhibiting cell viability by 50% (IC50 values) were determined using a sigmoidal dose-response model (variable slopes, four parameters) in Prism 7 (La Jolla, Calif.).

Row | plasma clearance [1] [mL/min/kg] | Vd [1] [L/kg] | AUC(0-t) [1] [ng·h/mL] | Cmax [1] [ng/mL] | Tmax [1] [h] | bioavailability [1] [%] | half-life [1] [h] | plasma clearance [2] [mL/min/kg] | Vd [2] [L/kg] | AUC(0-t) [2] [ng·h/mL] | Cmax [2] [ng/mL] | Tmax [2] [h] | bioavailability [2] [%] | half-life [2] [h] | IC50 [3] [µM] | Structure (SMILES)
1 | 31.7 | 7.15 ± 2.86 | 3280 ± 805 | 798 ± 247 | 1.17 ± 0.764 | 62 ± 15.1 | 3.13 ± 0.415 | 35.7 | 2.48 | 3410 | 3580 | 0.25 | 73.3 | 1.22 | 0.014 | CC(=O)N1CCC(Nc2ccc3c(c2)C(=O)N(C[C@H](O)CN2CCc4ccccc4C2)CC3)CC1 [Compound 24a, (R)-7-((1-acetylpiperidin-4-yl)amino)-2-(3-(3,4-dihydroisoquinolin-2(1H)-yl)-2-hydroxypropyl)-3,4-dihydroisoquinolin-1(2H)-one]
2 | 35.3 | 5.02 ± 0.389 | 2260 ± 764 | 563 ± 233 | 1.33 ± 0.577 | 48.1 ± 16.1 | 3.02 ± 0.413 | 50.7 | 2.25 | 2720 | 3080 | 0.25 | 83 | 2.86 | 0.014 | CC(=O)N1CCC(Nc2ccc3c(c2)C(=O)N(C[C@H](O)CN2CCc4ccccc4C2)CCO3)CC1 [Compound 52a, (R)-7-((1-acetylpiperidin-4-yl)amino)-4-(3-(3,4-dihydroisoquinolin-2(1H)-yl)-2-hydroxypropyl)-3,4-dihydrobenzo[f][1,4]oxazepin-5(2H)-one]
3 | 35.5 | 2.17 ± 0.0643 | 1400 ± 601 | 364 ± 82.5 | 1.67 ± 0.577 | 30.5 ± 13 | 1.5 ± 0.123 | 44.7 | 1.48 | 2420 | 761 | 2 | 64.9 | 0.798 | 0.07 | CC(=O)N1CCC(Nc2cc(C(=O)NC[C@H](O)CN3CCc4ccccc4C3)ncn2)CC1 [Compound C3, reference compound]

Source: patent US11591326B2, “Inhibitors of protein arginine methyltransferase 5 (PRMT5), pharmaceutical products thereof, and methods thereof” (PHARMABLOCK SCIENCES (NANJING), INC., priority 2018, dated 2023)
